Marks after values point to notes of the source that are not given here.
Assays:
[1] = system: mitochondrial cytochrome C oxidase subunit II (COXII) gene; assay type: cell-based, human; conditions: HepG2, 10 μM, 7 days
Source text: The Q-RT-PCR technology was also used to evaluate potential mitochondrial γ-DNA polymerase inhibition by the compounds of the present invention in relevant human cells. […] Since active nucleoside compounds in the triphosphate form lack a 3′-OH, thereby stopping virus replication by chain termination, there is a concern that these nucleoside analogues are also substrates for the human DNA polymerase γ, resulting in inhibition of mitochondrial DNA replication and subsequently toxic side effects (11, 19). In an attempt to provide direct quantifiable data on mitochondrial DNA levels intracellular, a Q-PCR technology was designed and relative quantification of COXII DNA levels were calculated using the comparative Ct method. […] Also, in agreement with previous observations, no changes in normalized mitochondrial DNA levels were observed after FIAU and D4T treatment (6, 8, 23).
(§1) Low passage number HepG2 cells, obtained from American Tissue Culture Collection (ATCC, Manassas, Va.) were seeded at 5,000 cells/well in collagen-coated 96-well plates. Test compounds were added to the media to obtain a final concentration of 10 μM. On culture day 7, cellular nucleic acids were prepared by using commercially available columns (RNeasy 96 kit, Qiagen). […] The mitochondrial cytochrome C oxidase subunit II (COXII) gene and the β-actin or rRNA gene were amplified from 5 μL with a multiplex Q-PCR protocol using the suitable primers and probes for both target and reference (designed using the Primer Express software, Applied Biosystems); • for COXII. • sense primer 5′-[…]-3′ (Sequence 7); • probe 5′-TET-[…]-TAMRA-3′ (Sequence 8); and • antisense probe 5′-[…]-3′ (Sequence 9); • for exon 3 of β-actin (GenBank E01094): • sense primer 5′-[…]-3′ (Sequence 10); • probe 5′-6FAM-[…]-TAMRA-3′ (Sequnece 11); and • antisense probe 5′-[…]-3′ (Sequence 12).
(§2) The rRNA gene primers and probes were purchased from Applied Biosystems. Standard curves using 1-log diluted total HepG2 DNA were linear over more than 5 logs. In addition, efficiencies of target (COXII DNA) and reference (β-actin DNA or rRNA) amplification were approximately equal, because the slope of the ΔCt line (Ct β-actin minus Ct mitochondrial) was less than 0.1 (not shown). Since equal amplification efficiencies were obtained for both genes, the comparative cycle threshold (Ct) method was used to investigate potential inhibition of the mitochondrial DNA polymerase γ. The comparative Ct method uses arithmetic formulas in which the amount of target (COXII gene) is normalized to an endogenous reference (β-actin gene or rRNA gene) and is relative to a calibrator (no drug control at day 7). The arithmetic formula for this approach is given by 2-ΔΔCt (User bulletin # 2, Applied Biosystems).
(§3) In order to study the consequences of possible inhibitory effects of these compounds on host DNA polymerases, nuclear and rnitochondrial DNA levels were quantified and compared to no-treatment controls. Cells were incubated for 7 days with 10 μM of each compound, followed by total nucleic acid extractions and multiplex Q-PCR of the rRNA gene and the mitochondrial COXII gene. Nucleic acids from cells exposed to the control compounds were also amplified in multiplex for mitDNA and the β-actin gene. The results are presented in Table 4 using the comparative Ct method.

rRNA gene = assay type: cell-based, human; conditions: HepG2, 10 μM, 7 days
Description: Low passage number HepG2 cells, obtained from American Tissue Culture Collection (ATCC, Manassas, Va.) were seeded at 5,000 cells/well in collagen-coated 96-well plates. Test compounds were added to the media to obtain a final concentration of 10 μM. On culture day 7, cellular nucleic acids were prepared by using commercially available columns (RNeasy 96 kit, Qiagen).
The rRNA gene primers and probes were purchased from Applied Biosystems. […] The comparative Ct method uses arithmetic formulas in which the amount of target (COXII gene) is normalized to an endogenous reference (β-actin gene or rRNA gene) and is relative to a calibrator (no drug control at day 7). The arithmetic formula for this approach is given by 2-ΔΔCt (User bulletin # 2, Applied Biosystems).
as §3, with “gene.” for “gene. The results are presented in Table 4 using the comparative Ct method.”

β-actin gene = assay type: cell-based, human; conditions: HepG2, 10 μM, 7 days
Description: as §1, §2, §3

[2] = target: T1, adenosine deaminase (EC.3.5.4.4. from calf intestinal mucosa) (Bos taurus, UniProt P56658); assay: in vitro
T1 sequence (P56658 1-363): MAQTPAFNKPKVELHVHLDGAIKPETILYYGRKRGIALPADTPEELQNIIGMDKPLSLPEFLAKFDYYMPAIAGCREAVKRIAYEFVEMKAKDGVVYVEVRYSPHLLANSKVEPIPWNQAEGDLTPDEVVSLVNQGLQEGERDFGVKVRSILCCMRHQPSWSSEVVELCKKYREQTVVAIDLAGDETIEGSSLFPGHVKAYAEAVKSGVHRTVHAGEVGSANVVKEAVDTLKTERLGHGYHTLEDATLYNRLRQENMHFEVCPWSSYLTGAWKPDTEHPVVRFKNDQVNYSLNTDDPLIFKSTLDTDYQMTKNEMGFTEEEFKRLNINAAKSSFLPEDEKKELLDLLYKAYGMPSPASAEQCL
Description: Assays were performed at 25° C. in phosphate buffer solution (pH 7.4) with substrate concentrations in the range of 15-100 μM and with 0.15 unit of adenosine deaminase (EC.3.5.4.4. from calf intestinal mucosa). The assays were monitored with a UV spectrometer at 265 nm. Initially, the qualitative assays were performed with D-β-2′-F-4′-S-d4A 24 (200 μM) in the presence of 0.24 unit of adenosine deaminase for 120 minutes to determine whether it is a substrate of this enzyme. The concentration (ct) of each substrate at a certain time (t) was calculated from the absorbance (At) at that time (t), where it was assumed that the total change of absorbance (A0−A∞) was directly related to the disappearance of the substrate.^35 Initial hydrolysis rates for each substrate concentration were measured manually through graphical curve fitting of the concentration versus time data for reaction of each substrate. From Lineweaver-Burke plot of these initial rates, Vmax (maximum velocity) and KM (Michaelis constant) were obtained for each substrate and kcat was also calculated with 0.15 unit of the enzyme (M.W. 33,000) in 2 mL of buffer solution.

human PBM cells = assay: in vitro; assay type: cell-based
Description: The compounds were evaluated for their potential toxic effects on uninfected PHA-stimulated human PBM cells, in CEM (T-lymphoblastoid cell line obtained from American Type Culture Collection, Rockville, Md.) and Vero (African green monkey kidney) cells. PBM cells were obtained from whole blood of healthy seronegative donors (HIV-1 and hepatitis B virus) by single-step Ficoll-Hypaque discontinous gradient centrifugation. […] All of the cells were plated in 96-well cell culture plates containing ten-fold serial dilutions of the test drug. […] At the end of incubation, MTT tetrazolium dye solution (Cell titer 96®, Promega, Madison, Wis.) was added to each well and incubated overnight. The reaction was stopped with stop solubilization solution (Promega, Madison, Wis.). The plates were incubated for 5 hours to ensure that the formazan crystals were dissolved. The plates were read at a wavelength of 570 nm using an ELISA plate reader (Bio-tek instruments, Inc., Winooski, Vt., Model # EL 312e). […] Bookmark not defined.

[3] = system: CEM (T-lymphoblastoid cell line); assay type: cell-based
Description: (§4) The compounds were evaluated for their potential toxic effects on uninfected PHA-stimulated human PBM cells, in CEM (T-lymphoblastoid cell line obtained from American Type Culture Collection, Rockville, Md.) and Vero (African green monkey kidney) cells. PBM cells were obtained from whole blood of healthy seronegative donors (HIV-1 and hepatitis B virus) by single-step Ficoll-Hypaque discontinous gradient centrifugation. Log phase Vero, CEM and PHA-stimulated human PBM cells were seeded at a density of 5×10^3, 2.5×10^3 and 5×10^4 cells/well respectively. All of the cells were plated in 96-well cell culture plates containing ten-fold serial dilutions of the test drug. The cultures were incubated for 3, 4 and 5 days for Vero, CEM, and PBM cells, respectively in a humidified 5% CO2-air at 37° C. At the end of incubation, MTT tetrazolium dye solution (Cell titer 96®, Promega, Madison, Wis.) was added to each well and incubated overnight. The reaction was stopped with stop solubilization solution (Promega, Madison, Wis.). The plates were incubated for 5 hours to ensure that the formazan crystals were dissolved. The plates were read at a wavelength of 570 nm using an ELISA plate reader (Bio-tek instruments, Inc., Winooski, Vt., Model # EL 312e). […] Bookmark not defined.

[4] = system: Vero (African green monkey kidney) cells; assay: in vitro; assay type: cell-based
Description: as §4

HIV-1LAI = assay: HIV assay in human PBM cells (RT activity of supernatant); assay type: cell-based; conditions: 5 days, read-out: Anti-HIV-1 Activity (EC50)
Source text: Human peripheral blood mononuclear (PBM) cells (obtained from Atlanta Red Cross) were isolated by Ficoll-Hypaque discontinuous gradient centrifugation from healthy seronegative donors. Cells were stimulated with phytohemagglutinin A (Difco, Sparks, Md.) for 2-3 days prior to use. HIV-1LAI obtained from the Centers for Disease Control and Prevention (Atlanta, Ga.) was used as the standard reference virus for the antiviral assays. The molecular infetious clones HIV-1xxBru and HIV-1M184Vpin were obtained from Dr. John Mellors (University of Pittsburgh). Infections were done in bulk for one hour, either with 100 TCID50/1×10^7 cells for a flask (T25) assay or with 200 TCID50/6×10^5 cells/well for a 24 well plate assay. Cells were added to a plate or flask containing a ten-fold serial dilution of the test compound. Assay medium was RPMI-1640 supplemented with heat inactivated 16% fetal bovine serum, 1.6 mM L-glutamine, 80 IU/ml penicillin, 80 μg/ml streptomycin, 0.0008% DEAE-Dextran, 0.045% sodium bicarbonate, and 26 IU/ml recombinant interleukin-2 (Chiron Corp, Emeryville, Calif.). AZT was used as a positive control for the assay. Untreated and uninfected PBM cells were grown in parallel at equivalent cell concentrations as controls. The cell cultures were maintained in a humidified 5% CO2-air at 37° C. for 5 days and supernatants were collected for reverse transcriptase (RT) activity.
Supernatants were centrifuged at 12,000 rpm for 2 hours to pellet the virus. The pellet was solubilized with vortexing in 100 μl virus solubilization buffer (VSB) containing 0.5% Triton X-100, 0.8 M NaCl, 0.5 mM phenylmethylsulfonyl fluoride, 20% glycerol, and 0.05 M Tris, pH 7.8. Ten μL of each sample were added to 75 μL RT reaction mixture (0.06 M Tris, pH 7.8, 0.012 M MgCl2, 0.006 M dithiothreitol, 0.006 mg/ml poly (rA)n, oligo (dT)12-18, 96 μg/ml dATP, and 1 μM of 0.08 mCi/ml ^3H-thymidine triphosphate (Moravek Biochemicals, Brea, Calif.) and incubated at 37° C. for 2 hours. The reaction was stopped by the addition of 100 μL 10% trichloroacetic acid containing 0.05% sodium pyrophosphate. The acid insoluble product was harvested onto filter paper using a Packard Harvester (Meriden, Conn.), and the RT activity was read on a Packard Direct Beta Counter (Meriden, Conn.). The RT results were expressed in counts per minute (CPM) per milliliter.

HIV-1xxBRU = conditions: cited from earlier work
HIV-1M184V = conditions: cited from earlier work
[5] = human PBM cells, Ref. 11(b) Lee et al.

In the case of `Nc1ccn(C2CSC(CO)O2)c(=O)n1` (single isomer, unassigned; (+)) [(+)-BCH-189, (+)-β-2′,3′-dideoxy-3′-thiacytidine], the “COXIINrDNA (range) relative to control” value ([1]; COXII DNA normalized to rDNA, 2-ΔΔCt) is reported as 0.20 (0.13-0.32), the “COXIINβ-actin DNA (range) relative to control” value ([1]; COXII DNA normalized to β-actin DNA, 2-ΔΔCt) is reported as 0.17 (0.14-0.22) and the “Average ΔΔCt ± SD COXII-rDNA” value [1] is reported as 2.3 ± 0.66^d. The “Average ΔΔCt ± SD COXII-β-actin” value [1] was 2.53 ± 0.36^d, the “effect on (normalized) mitochondrial COXII DNA levels, in words” value [1] was “reduce rnitochondrial COXII DNA levels” and the “Average ΔCt ± SD rDNA” value (rRNA gene) was −0.14 ± 0.61. The “Average ΔΔCt ± SD rDNA-β-actin” value (rRNA gene) was 0.23 ± 0.39 and the “Average ΔCt ± SD β-actin DNA” value (β-actin gene) was −0.36 ± 0.31.

With `Cc1cn([C@@H]2CC(F)(F)[C@H](CO)O2)c(=O)[nH]c1=O` [Compound 26, 1-(2,3-Dideoxy-3,3-difluoro-β-L-ribofuranosyl)thymine] the melting point was 140 °C (dec.).

With `Cc1cn([C@@H]2C=C(F)[C@H](CO)O2)c(=O)[nH]c1=O` [Compound 28, 1-(2,3-dideoxy-3-fluoro-β-L-glycero-pent-2-eno-furanosyl)thymine] the melting point was 146 to 148 °C (dec.).

`Nc1ncnc2c1ncn2[C@@H]1S[C@H](CO)C=C1F` [Compound D-27, (−)-9-[(1R,4S)-2,3-dideoxy-2,3-didehydro-2-fluoro-4-thio-β-D-ribofuranosyl]-adenine] gave a kcat ([2]; 25° C., pH 7.4, 0.15 unit of enzyme) of 0.94 s⁻¹, a Km ([2]; 25° C., phosphate buffer pH 7.4, substrate of ADA) of 18.3 µM and a t½ ([2]; bovine) of 33 min. For the same compound, the IC50 (human PBM cells) was greater than 100 µM, the IC50 [3] was greater than 100 µM and the IC50 [4] was greater than 100 µM. It also gave an EC50 (HIV-1LAI) of 8.1 µM.

For `Nc1nc(=O)n([C@@H]2O[C@H](CO)C=C2F)cc1F` [β-D-2′-F-d4FC], the EC50 (HIV-1xxBRU; EC50 instead of EC90 (footnote g), Ref. 23, read-out: Activity WT (xxBRU), anti-HIV activity in EC50) is listed as 3.1 µM, the EC90 (HIV-1xxBRU; [5]) is listed as 9.9 µM and the EC50 (HIV-1M184V; EC50 instead of EC90 (footnote g), Ref. 23, read-out: Activity M184V, anti-HIV activity in EC50) is listed as 9.6 µM. The “FI, fold increase (EC90 HIV-1M184V/EC90 HIV-1xxBRU)” value (HIV-1M184V; Ref. 11(b) Lee et al.) was 3.5, the “F1 (fold increase) in EC50” value (HIV-1M184V; fold increase in EC50 (footnote g), Ref. 23) was 3^g and the EC90 (HIV-1M184V; [5]) was 34.7 µM.

Source: patent US6949522B2, “β-2′- or 3′-halonucleosides” (Pharmasset, Inc., priority 2001, dated 2005)
